Where two headings read alike, the source gives them in different places.
How the values were obtained:
Rat Liver [1] = conditions: ref ToxRefDB, cited from earlier work
Mouse Liver [2] = conditions: mouse, chronic study, ref ToxRefDB; cited from earlier work
CYP2B6 = experiment: CLZD_CYP2B6: Change in expression of CYP2B6 (primary human hepatocytes); assay type: cell-based; conditions: 24 hr
In short: (§1)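 Cultured primary human hepatocytes treated with chemicals for 6, 24 or 48 hr across five concentrations spanning 0.004-40 µM, then transcript level measured by quantitative nuclease protection in a multiplexed format.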

CYP3A4 = experiment: CLZD_CYP3A4: Change in expression of CYP3A4 (primary human hepatocytes); assay type: cell-based; conditions: 24 hr
In short: as §1

Rat Liver [3] = conditions: ref ToxRefDB, cited from earlier work; remark: listed apart in the source
[4] = target: T1, ESR1 (estrogen receptor 1) (Homo sapiens, UniProt P03372); experiment: ATG_ERE_CIS: Factorial reporter gene assay (HepG2); assay type: cell-based; conditions: HepG2
T1 construct: expressed in transfected cells; host or cells: HepG2
Procedure: (§2) A multiple reporter transcription unit (MRTU) library consisting of 48 transcription factor binding sites was transfected into the HepG2 human liver hepatoma cell line. In addition to the cis-acting reporter genes (CIS), a modification of the approach was used to generate a trans-system (TRANS) with a mammalian one-hybrid assay consisting of an additional 25 MRTU library reporting the activity of nuclear receptor super-family members. […] These assays were performed by Attagene Inc. (Morrisville NC) under contract to EPA.
(§3) In addition to the cis-acting reporter genes (CIS), a modification of the approach was used to generate a trans-system (TRANS) with a mammalian one-hybrid assay consisting of an additional 25 MRTU library reporting the activity of nuclear receptor super-family members. […] Chemicals were then tested in the CIS and TRANS assays at seven concentrations starting at the MTC and followed by three-fold serial dilutions. These assays were performed by Attagene Inc. (Morrisville NC) under contract to EPA. Detailed description of the methods, data and analysis methods for this dataset will be presented in a separate publication.

Rat Liver [5] = conditions: ref ToxRefDB, cited from earlier work; remark: listed apart in the source
PXR (NR1I2) [6] = target: T2, PXR (NR1I2) (Homo sapiens, UniProt O75469); experiment: ATG_PXRE_CIS: Factorial reporter gene assay (HepG2); assay type: cell-based; design: endogenous in cells; host or cells: HepG2; conditions: HepG2
T2 sequence (O75469 1-434): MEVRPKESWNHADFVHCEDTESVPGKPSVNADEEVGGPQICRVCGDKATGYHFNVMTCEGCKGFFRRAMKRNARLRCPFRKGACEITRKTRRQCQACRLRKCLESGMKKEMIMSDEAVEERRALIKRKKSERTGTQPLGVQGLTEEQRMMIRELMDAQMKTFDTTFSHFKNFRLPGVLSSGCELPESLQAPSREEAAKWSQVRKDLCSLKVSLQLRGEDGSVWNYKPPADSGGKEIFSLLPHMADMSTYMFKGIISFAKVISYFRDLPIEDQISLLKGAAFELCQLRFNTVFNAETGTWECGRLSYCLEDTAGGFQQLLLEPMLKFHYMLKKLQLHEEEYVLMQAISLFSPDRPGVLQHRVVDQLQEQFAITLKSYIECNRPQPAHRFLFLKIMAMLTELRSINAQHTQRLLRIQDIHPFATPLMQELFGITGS
In short: (§4)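 Compounds at seven concentrations (top at MTC, threefold serial) were applied to transfected HepG2 hepatoma cells, with PXRE scored by cis-element reporters and ERRg, FXR and PPARg scored by trans one-hybrid nuclear receptor reporters.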

[7] = target: T3, PPARG (peroxisome proliferator-activated receptor gamma) (Homo sapiens, UniProt P37231); experiment: ATG_PPARg_TRANS: Factorial reporter gene assay (HepG2); assay type: cell-based; conditions: HepG2
T3 construct: expressed in transfected cells; host or cells: HepG2
T3 sequence (P37231 1-505): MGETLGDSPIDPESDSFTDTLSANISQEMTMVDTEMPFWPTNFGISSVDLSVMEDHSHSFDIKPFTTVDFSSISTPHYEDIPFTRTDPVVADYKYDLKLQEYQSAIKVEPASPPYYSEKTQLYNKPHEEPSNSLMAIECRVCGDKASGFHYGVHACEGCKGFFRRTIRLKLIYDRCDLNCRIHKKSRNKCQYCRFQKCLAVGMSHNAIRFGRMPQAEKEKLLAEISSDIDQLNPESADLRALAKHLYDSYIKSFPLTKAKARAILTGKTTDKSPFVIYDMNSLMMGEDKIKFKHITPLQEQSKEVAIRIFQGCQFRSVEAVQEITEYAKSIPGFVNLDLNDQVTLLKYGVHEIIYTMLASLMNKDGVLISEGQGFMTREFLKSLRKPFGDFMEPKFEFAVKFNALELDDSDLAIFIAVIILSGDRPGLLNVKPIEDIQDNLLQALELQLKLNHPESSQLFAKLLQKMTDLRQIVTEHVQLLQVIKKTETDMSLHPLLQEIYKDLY
In short: as §4

Mouse Liver [8] = conditions: mouse, chronic study, ref ToxRefDB; cited from earlier work; remark: listed apart in the source
Mouse Liver [9] = conditions: mouse, chronic study, ref ToxRefDB; cited from earlier work; remark: listed apart in the source
PXR (NR1I2) [10] = target: T2, PXR (NR1I2); experiment: ATG_PXR_TRANS: Factorial reporter gene assay (HepG2); assay type: cell-based; design: endogenous in cells; host or cells: HepG2; conditions: HepG2
In short: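 Seven concentrations per chemical, three-fold dilutions down from the MTC, were tested in HepG2 hepatoma cells. Those cells carried a multiple reporter transcription unit library, read either as cis transcription-factor-site reporters or as a trans mammalian one-hybrid panel for nuclear receptors.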

AR (androgen receptor) = experiment: NVS_NR_hAR: Human AR 3H-Methyltrienolone (cell-free HTS); assay type: binding
Source text: These are a collection of biochemical assays measuring binding constants and enzyme inhibition values. Chemicals were initially screened at a single concentration in duplicate wells at a concentration of 10 [drawing 63] M for cytochrome P-450 assays and 25 [drawing 64] M for all others. […] These assays were run by Caliper Life Sciences (Hanover, MD) under contract to EPA. Short assay descriptions are available at: http://www.caliperls.com/products/contract-research/in-vitro/.
Cell-free HTS Assays: A collection of biochemical assays measuring binding constants and enzyme inhibition values. […] These assays were run by Caliper Life Sciences (Hanover, MD) under contract to EPA. Short assay descriptions are available at http://www.caliperls.com/products/contract-research/in-vitro/. Values for all endpoints were imported into GeneData Screener (Basel, Switzerland) and normalised to solvent controls from the same plate as the tested compounds and expressed as percent of neutral control. Concentration-response curves were fit in GeneData Screener (Basel, Switzerland) Condeseo module using the Hill equation and AC50 values were determined. […] Detailed description of the methods, data and analysis methods for this dataset are described in a separate publication.

PXR (NR1I2) [11] = target: T2, PXR (NR1I2); experiment: NVS_NR_hPXR: Human PXR Fluormone PXR (SXR) green (cell-free HTS); assay type: binding
In short: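 Cell-free biochemical binding assays; chemicals first screened at a single concentration of 25 […] M in duplicate wells. Signals normalised to same-plate solvent controls as percent of neutral control, and AC50 values came from Hill-equation fits of concentration-response curves.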

LXRa (NR1H3) = target: T4, LXRa (NR1H3) (Homo sapiens, UniProt Q13133); experiment: ATG_LXRa_TRANS: Factorial reporter gene assay (HepG2); assay type: cell-based; conditions: HepG2
T4 construct: expressed in transfected cells; host or cells: HepG2
T4 sequence (Q13133 1-447): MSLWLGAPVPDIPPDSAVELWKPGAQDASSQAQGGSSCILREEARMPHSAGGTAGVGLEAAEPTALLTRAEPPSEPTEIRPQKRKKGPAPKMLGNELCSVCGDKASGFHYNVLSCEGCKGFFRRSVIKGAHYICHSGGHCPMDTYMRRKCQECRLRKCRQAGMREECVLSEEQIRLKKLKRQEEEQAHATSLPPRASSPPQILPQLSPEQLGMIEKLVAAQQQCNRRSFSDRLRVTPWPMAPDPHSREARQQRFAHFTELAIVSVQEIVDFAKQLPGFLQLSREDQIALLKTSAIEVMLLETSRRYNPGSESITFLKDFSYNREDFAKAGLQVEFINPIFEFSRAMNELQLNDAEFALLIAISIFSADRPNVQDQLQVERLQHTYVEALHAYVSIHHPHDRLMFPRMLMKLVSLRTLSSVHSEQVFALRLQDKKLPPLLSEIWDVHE
Procedure: as §2, §3

[12] = target: T5, AHR (aryl hydrocarbon receptor) (Homo sapiens, UniProt P35869); experiment: ATG_Ahr_CIS: Factorial reporter gene assay (multiplexed transcription reporter, HepG2); assay type: cell-based; conditions: HepG2
T5 construct: endogenous in cells; host or cells: HepG2
T5 sequence (P35869 11-848): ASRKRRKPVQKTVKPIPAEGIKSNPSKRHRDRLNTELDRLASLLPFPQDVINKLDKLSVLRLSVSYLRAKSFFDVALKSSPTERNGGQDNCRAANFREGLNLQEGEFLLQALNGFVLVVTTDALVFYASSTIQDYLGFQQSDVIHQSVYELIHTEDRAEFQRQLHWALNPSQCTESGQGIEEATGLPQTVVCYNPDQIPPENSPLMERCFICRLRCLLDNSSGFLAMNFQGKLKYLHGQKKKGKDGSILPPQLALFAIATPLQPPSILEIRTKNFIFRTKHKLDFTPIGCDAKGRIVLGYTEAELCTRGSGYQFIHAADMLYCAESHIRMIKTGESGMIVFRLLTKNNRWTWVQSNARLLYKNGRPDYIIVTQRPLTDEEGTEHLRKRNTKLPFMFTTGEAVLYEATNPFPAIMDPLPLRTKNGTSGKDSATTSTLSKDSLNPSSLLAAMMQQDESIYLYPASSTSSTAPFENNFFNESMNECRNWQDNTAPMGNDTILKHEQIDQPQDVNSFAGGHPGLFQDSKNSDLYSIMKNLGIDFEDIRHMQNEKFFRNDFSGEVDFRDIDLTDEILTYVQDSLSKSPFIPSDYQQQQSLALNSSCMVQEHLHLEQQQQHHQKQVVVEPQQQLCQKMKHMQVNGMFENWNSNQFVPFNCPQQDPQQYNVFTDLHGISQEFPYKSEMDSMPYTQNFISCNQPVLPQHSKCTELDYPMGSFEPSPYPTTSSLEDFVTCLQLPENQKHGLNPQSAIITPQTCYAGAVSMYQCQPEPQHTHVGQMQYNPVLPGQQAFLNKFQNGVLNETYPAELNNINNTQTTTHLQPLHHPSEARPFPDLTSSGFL
Procedure: as §2, §3

LXRb (NR1H2) = target: T6, LXRb (NR1H2) (Homo sapiens, UniProt P55055); experiment: ATG_LXRb_TRANS: Factorial reporter gene assay (HepG2); assay type: cell-based; conditions: HepG2
T6 construct: expressed in transfected cells; host or cells: HepG2
T6 sequence (P55055 1-460): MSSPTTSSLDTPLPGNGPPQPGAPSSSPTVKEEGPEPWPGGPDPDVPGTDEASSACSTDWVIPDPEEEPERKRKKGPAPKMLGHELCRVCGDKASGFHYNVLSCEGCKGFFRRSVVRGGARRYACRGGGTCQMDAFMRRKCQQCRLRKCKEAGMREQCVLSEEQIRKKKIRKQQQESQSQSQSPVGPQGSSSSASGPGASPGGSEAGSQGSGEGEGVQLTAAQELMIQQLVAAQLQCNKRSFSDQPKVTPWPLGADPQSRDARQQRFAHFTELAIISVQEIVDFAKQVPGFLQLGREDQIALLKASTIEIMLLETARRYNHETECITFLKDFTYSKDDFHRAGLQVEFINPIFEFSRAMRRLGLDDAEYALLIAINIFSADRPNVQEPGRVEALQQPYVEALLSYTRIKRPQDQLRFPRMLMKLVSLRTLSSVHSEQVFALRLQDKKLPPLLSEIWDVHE
Procedure: as §2, §3

T1 sequence (P03372 whole entry): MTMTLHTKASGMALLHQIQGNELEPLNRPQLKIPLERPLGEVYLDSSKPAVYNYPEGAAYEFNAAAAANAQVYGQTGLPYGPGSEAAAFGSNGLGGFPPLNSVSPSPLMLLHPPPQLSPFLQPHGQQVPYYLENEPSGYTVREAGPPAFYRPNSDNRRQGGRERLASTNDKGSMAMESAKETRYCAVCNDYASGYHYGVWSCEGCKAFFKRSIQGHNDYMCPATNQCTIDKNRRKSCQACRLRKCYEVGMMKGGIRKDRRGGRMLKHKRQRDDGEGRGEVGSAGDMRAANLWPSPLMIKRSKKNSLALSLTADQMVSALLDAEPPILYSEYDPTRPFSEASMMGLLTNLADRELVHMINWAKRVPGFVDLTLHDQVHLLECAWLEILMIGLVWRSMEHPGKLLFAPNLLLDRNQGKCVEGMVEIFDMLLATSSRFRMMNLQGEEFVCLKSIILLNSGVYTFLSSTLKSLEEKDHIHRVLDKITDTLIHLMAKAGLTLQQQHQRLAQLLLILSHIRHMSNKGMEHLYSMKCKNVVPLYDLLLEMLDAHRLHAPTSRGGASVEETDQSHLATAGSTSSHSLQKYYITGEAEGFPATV

Cc1cc(C)nc(NC(=O)NS(=O)(=O)c2ccccc2C(=O)OC2COC2)n1 [r232]
CHR_Rat_Liver_3_NeoplasticLesion (Rat Liver [1]; rat, chronic study): 0 | CHR_Mouse_Liver_1_AnyLesion (Mouse Liver [2]): 6 | CLZD_CYP2B6_24 (CYP2B6): 4.534 | CLZD_CYP3A4_24 (CYP3A4): 4.535 | CHR_Rat_Liver_1_AnyLesion (Rat Liver [3]; rat, chronic study): 6 | ATG_ERE_CIS [4]: 4.319 | CHR_Rat_Liver_2_PreneoplasticLesion (Rat Liver [5]; rat, chronic study): 6 | ATG_PXRE_CIS (PXR (NR1I2) [6]): 4.337

CCCN(CCOc1c(Cl)cc(Cl)cc1Cl)C(=O)n1ccnc1 [r251]
CHR_Rat_Liver_3_NeoplasticLesion (Rat Liver [1]; rat, chronic study): 0 | ATG_PPARg_TRANS [7]: 5.456 | CHR_Mouse_Liver_3_NeoplasticLesion (Mouse Liver [8]): 6 | CHR_Mouse_Liver_1_AnyLesion (Mouse Liver [2]): 6 | CHR_Rat_Liver_1_AnyLesion (Rat Liver [3]; rat, chronic study): 6 | CHR_Mouse_Liver_2_PreneoplasticLesion (Mouse Liver [9]): 6 | ATG_PXR_TRANS (PXR (NR1I2) [10]): 5.444 | CHR_Rat_Liver_2_PreneoplasticLesion (Rat Liver [5]; rat, chronic study): 0 | NVS_NR_hAR (AR (androgen receptor)): 4.903 | ATG_PXRE_CIS (PXR (NR1I2) [6]): 5.538 | NVS_NR_hPXR (PXR (NR1I2) [11]): 5.274

CN=C=S [row 205]
ATG_PPARg_TRANS [7]: 4.215 | ATG_LXRa_TRANS (LXRa (NR1H3)): 4.495

COC(=O)c1ccccc1S(=O)(=O)NC(=O)Nc1nc(C)nc(OC)n1 [row 210]
CHR_Rat_Liver_3_NeoplasticLesion (Rat Liver [1]; chronic rat study, liver): 0 | ATG_Ahr_CIS [12]: 4.337 | ATG_LXRb_TRANS (LXRb (NR1H2)): 4.215 | CHR_Rat_Liver_1_AnyLesion (Rat Liver [3]; chronic rat study, liver): 0 | CHR_Rat_Liver_2_PreneoplasticLesion (Rat Liver [5]; chronic rat study, liver): 0
